Laboratory results published in patent publication US20220151989A1, “LIPOIC ACID PRODRUG” (SANTEN PHARMACEUTICAL CO., LTD., priority 2019, published 2022).

Key:
[1] = test system: lens elasticity; assay: Pharmacological Test-1: lens elasticity after instillation 3 times per day for 12 to 15 days; format: in vivo, C57BL/6J mice; conditions: for Lens elasticity improvement: 0.03% (w/v) solution, 2.5 μL/eye, right eye, 3 times per day for 12 to 15 days, 8-month-old mice, vs vehicle control; for lens elasticity improving effect: at a concentration of 0.03%
Protocol: The effects of compounds 1 to 4 on the lens elasticity were examined. The tests were conducted with reference to the methods described in Invest Ophthalmol Vis Sci, 57, 2851-2863, 2016.
A vehicle (aqueous solution) comprising 0.1% (w/v) of ethyl pyruvate, 0.269% (w/v) of sodium dihydrogenphosphate monohydrate (NaH2PO4.H2O), 0.433% (w/v) of di sodium hydrogenphosphate (Na2HPO4), 0.2% (w/v) of hydroxypropyl methylcellulose, 0.5% (w/v) of NaCl, 1.0% (w/v) of polyoxyl 35 castor oil (hereinafter also referred to as “CO35”), and purified water (appropriate amount) was prepared.
Each of compounds 1 to 4 was stirred with the addition of the vehicle to give a 0.03% (w/v) solution.
EV06 was stirred with the addition of the vehicle to give a 0.03% (w/v) solution. (Test method) 1) Each test sample (2.5 μL/eye) was instilled into the right eye of 8-month-old C57BL/6J mice with a Pipetman 3 times per day (around 9:00, 13:00, 17:00) for 12 to 15 days. 2) After the final instillation, the mice were euthanized by carbon dioxide inhalation, and then the eyeballs were extracted and rinsed with Hank's balanced salt solution (HESS). 3) The sclera near the optic nerve was cut with a razor, the lens was removed through the incision, and the removed lens was immersed in HESS. 4) The lens was placed on a glass slide, and an all-in-one fluorescence microscope BZ-9000 (Keyence) was used to capture an image of the lens (Image a). 5) Next, one cover glass (Corning^registered trade mark) 22×22 mm Square) was placed on the lens, and an image in which the thickness of the lens changed due to the weight was similarly captured (Image b). 6) A change in the lens diameter was calculated from the following Equation 1 wherein the lens diameter of Image a is subtracted from the lens diameter of Image b. Then, the lens elasticity improvement of each sample group compared with the vehicle control group was calculated from Equation 2 described below. The mean value of the vehicle control group was based on 5 eyes, the mean value of each of the sample groups of compounds 1 to 4 was based on 10 eyes, and the mean value of EV06 sample group was based on 9 eyes.
Change in lens diameter=Lens diameter in Image b of each test sample−Lens diameter in Image a of each test sample (Equation 1)
Lens elasticity improvement of each sample group=Mean change in lens diameter of each Test sample group−Mean change in lens diameter of Vehicle control group (Equation 2)

[2] = test system: lens elasticity; assay: Pharmacological Test-2: lens elasticity at different concentrations, instillation 3 times per day for 12 to 15 days; format: in vivo, C57BL/6J mice; conditions: for Lens elasticity improvement: 3 times per day for 12 to 15 days; for lens elasticity improvement compared with 1.5% EV06 group: 0.03% and 0.3% sample groups
Protocol: The effects of Compounds 1, 3, and 4 on the lens elasticity were investigated at different concentrations.
(§1) Vehicle A (aqueous solution) comprising 0.1% (w/v) of ethyl pyruvate, 0.269% (w/v) of sodium dihydrogenphosphate monohydrate (NaH2PO4.H2O), 0.433% (w/v) of disodium hydrogenphosphate (Na2HPO4), 0.2% (w/v) of hydroxypropyl methylcellulose, 0.5% (w/v) of NaCl, 0.2% (w/v) of 0035, and purified water (appropriate amount) was prepared.
as §1, with “B (emulsion)” for “A (aqueous solution)”, “CO35, 0.6% benzyl benzoate,” for “0035,”
as §1, with “Vehicle C” for “Vehicle A”, “NaCl, 1.0%” for “NaCl, 0.2%”
as §1, with “Vehicle D (emulsion)” for “Vehicle A (aqueous solution)”, “NaCl, 1.0%” for “NaCl, 0.2%”, “of CO35, 3.0% benzyl benzoate,” for “of 0035,”
A diluent (aqueous solution) comprising 0.1% (w/v) of ethyl pyruvate, 0.269% (w/v) of sodium dihydrogenphosphate monohydrate (NaH2PO4.H2O), 0.433% (w/v) of disodium hydrogenphosphate (Na2HPO4), 0.2% (w/v) of hydroxypropyl methylcellulose, 0.5% (w/v) of NaCl, and purified water (appropriate amount) was prepared.
Compound 1 was stirred with the addition of Vehicle C to prepare a 1.5% (w/v) emulsion, and the emulsion was diluted with the diluent to give a 0.3% (w/v) emulsion. Further, the resulting 0.3% (w/v) emulsion was diluted with the diluent to give a 0.03% (w/v) emulsion. Further, the resulting 0.03% (w/v) emulsion was diluted with the diluent to give a 0.003% (w/v) emulsion.
Compound 3 was stirred with the addition of Vehicle C to give a 1.5% (w/v) solution, and the resulting solution was diluted to give a 0.3% (w/v) solution. Further, the resulting 0.3% (w/v) solution was diluted with Vehicle A to give a 0.03% (w/v) solution. Further, the resulting 0.03% (w/v) solution was diluted with Vehicle A to give a 0.003% (w/v) solution.
Compound 4 was stirred with the addition of Vehicle D to give a 1.5% (w/v) emulsion, and the resulting emulsion was diluted with the diluent to prepare a 0.3% (w/v) emulsion. Further, the resulting 0.3% (w/v) emulsion was diluted with the diluent to give a 0.03% (w/v) emulsion. Further, the resulting 0.03% (w/v) emulsion was diluted with the diluent to give a 0.003% (w/v) emulsion.
EV06 was stirred with the addition of Vehicle A to give a 1.5% (w/v) solution, which was used for comparison to the samples of Compound 1 and 3.
EV06 was sonicated with the addition of Vehicle B to give a 1.5% (w/v) emulsion, which was used for comparison to Compound 4 sample.
(Test method) 1) Each test sample (2.5 μL/eye) was instilled into the right eye of 7 to 8-month-old C57BL/6J mice with a Pipetman 3 times per day (around 9:00, 13:00 and 17:00) for 12 to 15 days. 2) After the final instillation, the mice were euthanized by carbon dioxide inhalation, and then the eyeballs were extracted and rinsed with Hank's balanced salt solution (HESS). 3) The sclera near the optic nerve was cut with a razor, the lens was removed through the incision, and the removed lens was immersed in HESS. 4) The lens was placed on a glass slide, and an all-in-one fluorescence microscope BZ-9000 (Keyence) was used to capture an image of the lens (Image a). […]

[3] = 0.003% (w/v) sample, 7 to 8-month-old mice
[4] = 0.03% (w/v) sample, 7 to 8-month-old mice
[5] = 0.3% (w/v) sample, 7 to 8-month-old mice

| Compound | Lens elasticity improvement [1] [μm] | lens elasticity improving effect [1] | Lens elasticity improvement [2, 3] [μm] | Lens elasticity improvement [2, 4] [μm] | lens elasticity improvement compared with 1.5% EV06 group [2] | Lens elasticity improvement [2, 5] [μm] | Lens elasticity improvement ([2]; 1.5% (w/v) emulsion in Vehicle B, Table 4 (comparison to Compound 4)) [μm] | Lens elasticity improvement ([2]; 1.5% (w/v) solution in Vehicle A, Table 2 (comparison to Compound 1)) [μm] | Lens elasticity improvement ([2]; 1.5% (w/v) solution in Vehicle A, Table 3 (comparison to Compound 3)) [μm] |
| --- | --- | --- | --- | --- | --- | --- | --- | --- | --- |
| CC(C)=CCOC(=O)CCCC[C@@H]1CCSS1 [Compound 1, 3-Methyl-2-buten-1-yl (R)-5-(1,2-dithiolan-3-yl)pentanoate] | 48.0 | potent lens elasticity improving effect | 13.0 | 37.1 | equivalent to or better than 1.5% EV06 group | 36.8 |  |  |  |
| C[N+](C)(C)CCOC(=O)CCCC[C@@H]1CCSS1.[Cl-] [EV06, Lipoic acid choline ester, reference compound] | 4.0 | did not show lens elasticity improving effect |  |  |  |  | 46.8 | 30.8 | 18.2 |
| O=C(CCCC[C@@H]1CCSS1)OCCN1CCN(CCO)CC1 [Compound 3] | 49.9 | potent lens elasticity improving effect | 1.3 | 30.7 | equivalent to or better than 1.5% EV06 group | 41.8 |  |  |  |
